Measurements published in patent EP4789664A1, “NOVEL ANTI[…] AND USES THEREOF” (priority 2025, dated 2026).

Target: T1, IN-GCN2 interaction (UniProt P04585+Q9P2K8)
T1 construct: active truncated version of the human protein (192-1024); Recombinant full-length HIV-1 IN was produced in-house; purchased SignalChem (GCN2); IN made in-house in E. coli BL21(DE3)pLysS E12-11G; host or cells: BL21(DE3)pLysS for IN
Experiment: biochemical
Format: binding, HIV-1 IN; human GCN2
Details: read-out: inhibition of the IN-GCN2 interaction at 100 µM
Procedure: The interaction between IN and GCN2 was monitored using the AlphaLISA technology (Revvity). The reaction was performed in a shallow-well 384-well microplate (Revvity, AlphaPlate-384SW, ProxiPlate) with 24 nM GST-GCN2, 700 nM 6xHis-IN, 10 µg/mL of nickel chelate acceptor beads and glutathione donor beads, the test compound or an equivalent amount of DMSO (solvent at 10 % final concentration) in a buffer composed of 50 mM Tris-HCl pH 7.5, 1 mM DTT, 0.05% Tween 20, 0.1% bovine serum albumin (BSA) and 40 mM NaCl (final volume 15µl). First, the reaction was initiated by adding the various components except the donor beads. After 20 minutes at room temperature, the donor beads were added and the plate sealed. Data acquisition was performed 120 minutes later using a Victor Nivo Multimode Plate Reader (Revvity). Means, standard deviations and graphical representation were generated using Prism 8.4.3 software (GraphPad).
420 molecules from the National Cancer Institute Developmental Therapeutics Program (NCI DTP) were screened as modulators of the IN-GCN2 interaction in vitro. […] Experiments were conducted onto two separate AlphaPlates 384-shallow well, with 180 and 240 molecules respectively and 12 DMSO control each.

T1 sequence (Q9P2K8 192-1024, other chains not shown): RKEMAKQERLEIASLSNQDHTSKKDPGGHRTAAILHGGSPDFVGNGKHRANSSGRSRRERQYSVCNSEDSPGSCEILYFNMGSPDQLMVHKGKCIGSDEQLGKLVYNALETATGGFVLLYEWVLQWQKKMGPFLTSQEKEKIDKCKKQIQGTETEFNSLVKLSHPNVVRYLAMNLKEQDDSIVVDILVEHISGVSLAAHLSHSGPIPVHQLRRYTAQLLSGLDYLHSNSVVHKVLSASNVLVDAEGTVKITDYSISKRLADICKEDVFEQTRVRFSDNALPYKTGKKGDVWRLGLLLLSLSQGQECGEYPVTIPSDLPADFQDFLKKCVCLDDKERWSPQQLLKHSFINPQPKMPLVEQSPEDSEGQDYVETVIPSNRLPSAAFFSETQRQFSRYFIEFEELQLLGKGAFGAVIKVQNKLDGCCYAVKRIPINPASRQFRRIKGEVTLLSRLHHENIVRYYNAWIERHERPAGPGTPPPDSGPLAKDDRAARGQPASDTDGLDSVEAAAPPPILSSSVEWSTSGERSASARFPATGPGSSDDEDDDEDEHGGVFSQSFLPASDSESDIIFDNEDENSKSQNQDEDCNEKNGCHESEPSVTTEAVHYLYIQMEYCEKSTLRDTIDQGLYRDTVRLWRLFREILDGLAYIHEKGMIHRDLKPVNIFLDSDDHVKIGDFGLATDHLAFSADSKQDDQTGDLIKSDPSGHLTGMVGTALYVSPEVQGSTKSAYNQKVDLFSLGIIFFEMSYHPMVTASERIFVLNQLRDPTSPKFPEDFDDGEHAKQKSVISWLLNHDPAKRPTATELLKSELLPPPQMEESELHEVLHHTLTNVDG

SMILES	inhibition at 100 µM [%]
CCOC(=O)N1CCc2cc(OC)c(OC)c3c2c1cc1cc(OC)c(OC)cc13 [III-3d, Dibenzo[de,g]quinoline-6-carboxylic acid, 4,5-dihydro-1,2,9,10-tetramethoxy-, ethyl ester]	~55
COc1cc2c(cc1OC)c1c(OC)c(OC)cc3c1c1c2sc(=S)n1CC3 [III-3a, 7,8,10,11-Tetramethoxy-4,5-dihydrodibenzo[de,g]-[1,3]thiazolo[5,4,3-ij]quinoline-2-thione]	~80
